pIC50: −log10 of the molar value.
Experiments:
[1] = molecular target: T1, ER-α (Homo sapiens, UniProt P03372); test: Breast Cancer Cell ER-α In Cell Western Assay (SP1); assay type: cell-based; conditions: MCF-7 cells, SP1 antibody, 4 or 24 hr post compound addition; for Emax: MCF7, read-out: ER-α In Cell Western Assay (SP1) Max Response; for DC50: read-out: ER-α In Cell Western Assay (SP1) IC50
T1 sequence (P03372 1-595): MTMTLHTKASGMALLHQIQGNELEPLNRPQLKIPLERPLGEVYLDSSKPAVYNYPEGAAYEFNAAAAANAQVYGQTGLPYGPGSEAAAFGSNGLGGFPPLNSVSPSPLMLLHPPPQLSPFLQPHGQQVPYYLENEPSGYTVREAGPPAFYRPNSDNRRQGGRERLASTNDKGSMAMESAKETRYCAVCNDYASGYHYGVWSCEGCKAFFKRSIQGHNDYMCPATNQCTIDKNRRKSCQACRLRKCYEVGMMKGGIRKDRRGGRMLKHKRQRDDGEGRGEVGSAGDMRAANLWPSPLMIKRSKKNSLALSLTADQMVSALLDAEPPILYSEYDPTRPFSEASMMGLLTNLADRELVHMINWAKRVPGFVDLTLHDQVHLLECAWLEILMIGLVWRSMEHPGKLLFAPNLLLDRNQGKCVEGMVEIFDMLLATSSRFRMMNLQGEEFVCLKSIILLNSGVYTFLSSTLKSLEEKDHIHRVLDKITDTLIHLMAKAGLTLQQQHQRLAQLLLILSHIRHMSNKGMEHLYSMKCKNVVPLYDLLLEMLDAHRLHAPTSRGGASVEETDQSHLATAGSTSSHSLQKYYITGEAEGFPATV
In short: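 ER-α protein levels measured by in-cell western with SP1 antibody, ratioed to DRAQ5 DNA signal and given as percent of untreated controls. Compounds added at 0.3–0.000003 μM final (eleven semilog points) to adherent MCF-7 cells in stripped serum; exposure 4 or 24 h before fixation.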

[2] = tested on: MCF-7 cells; test: Breast Cancer Cell Viability Assay (MCF-7, CellTiter-Glo); assay type: cell-based; conditions: 5 days' compound exposure; for pIC50: Homo sapiens, MCF7, 120 h
In short: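 Eleven-point semilog compound series, final 0.3-0.000003 μM, added to overnight-adhered MCF-7 cells (320/well; RPMI, 10% FBS, 20 mM HEPES) for 5 days. Viability read by CellTiter-Glo luminescence, background from medium without cells subtracted, expressed relative to untreated cells.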

Emax [1] [%]	DC50 [1] [nM]	pIC50 [2]	SMILES	MCF7 Viability Assay Max Response [2]
≥ 40	≤ 100	≥ 7.00	CC/C(=C(/c1ccc(/C=C/C(=O)O)cc1)c1ccc2[nH]ncc2c1)c1ccc(F)cc1C [Compound 25, (E)-3-(4-((E)-2-(4-Fluoro-2-methylphenyl)-1-(1H-indazol-5-yl)but-1-en-1-yl)phenyl)acrylic acid]	++ (++ = a single % value ≧ 40%)
≥ 40	≤ 100	≥ 7.00	CC/C(=C(/c1ccc(/C=C/C(=O)O)cc1)c1ccc2[nH]ncc2c1)c1cccc(O)c1 [Compound 93, (E)-3-(4-((E)-2-(3-Hydroxyphenyl)-1-(1H-indazol-5-yl)but-1-en-1-yl)phenyl)acrylic acid]	++ (++ = a single % value ≧ 40%)
≥ 40	≤ 100	< 7.00	CC/C(=C(/c1ccc(/C=C/C(=O)O)cc1)c1ccc2[nH]ncc2c1)c1cc(C#N)ccc1C [Compound 143, (E)-3-(4-((E)-2-(5-Cyano-2-methylphenyl)-1-(1H-indazol-5-yl)but-1-en-1-yl)phenyl)acrylic acid]	++ (++ = a single % value ≧ 40%)
≥ 40	≤ 100	≥ 7.00	CC/C(=C(/c1ccc(/C=C/C(=O)O)cc1)c1ccc2[nH]ncc2c1)c1cc(F)ccc1F [Compound 32, (E)-3-(4-((E)-2-(2,5-Difluorophenyl)-1-(1H-indazol-5-yl)but-1-en-1-yl)phenyl)acrylic acid]	++ (++ = a single % value ≧ 40%)
≥ 40	–	≥ 7.00	CC/C(=C(/c1ccc(/C=C/C(=O)O)cc1)c1ccc2[nH]ncc2c1)c1ccc(C#N)cc1 [Compound 45, (E)-3-(4-((E)-2-(4-Cyanophenyl)-1-(1H-indazol-5-yl)but-1-en-1-yl)phenyl)acrylic acid]	++ (++ = a single % value ≧ 40%)
≥ 40	≤ 100	≥ 7.00	CC/C(=C(/c1ccc(/C=C/C(=O)O)cc1)c1cc2cn[nH]c2cc1F)c1ccccc1 [Compound 58, (E)-3-(4-((E)-1-(6-Fluoro-1H-indazol-5-yl)-2-phenylbut-1-en-1-yl)phenyl)acrylic acid]	++ (++ = a single % value ≧ 40%)
≥ 40	≤ 100	≥ 7.00	CC/C(=C(/c1ccc(/C=C/C(=O)O)cc1)c1ccc2[nH]ncc2c1)c1ccc(F)cc1 [Compound 3, (E)-3-(4-((E)-2-(4-Fluorophenyl)-1-(1H-indazol-5-yl)but-1-en-1-yl)phenyl)acrylic acid]	++ (++ = a single % value ≧ 40%)
≥ 40	≤ 100	≥ 7.00	CC/C(=C(/c1ccc(/C=C/C(=O)O)cc1)c1ccc2[nH]ncc2c1F)c1ccccc1 [Compound 49, (E)-3-(4-((E)-1-(4-Fluoro-1H-indazol-5-yl)-2-phenylbut-1-en-1-yl)phenyl)acrylic acid]	++ (++ = a single % value ≧ 40%)
≥ 40	–	≥ 7.00	CC/C(=C(/c1ccc(/C=C/C(=O)O)cc1)c1ccc2[nH]ncc2c1)c1ccc(C#N)cc1C [Compound 142, (E)-3-(4-((E)-2-(4-Cyano-2-methylphenyl)-1-(1H-indazol-5-yl)but-1-en-1-yl)phenyl)acrylic acid]	++ (++ = a single % value ≧ 40%)
≥ 40	≤ 100	≥ 7.00	O=C(O)/C=C/c1ccc(/C(=C(\c2ccccc2)C2CCC2)c2ccc3[nH]nc(F)c3c2)cc1 [Compound 87, (E)-3-(4-((E)-2-Cyclobutyl-1-(3-fluoro-1H-indazol-5-yl)-2-phenylvinyl)phenyl)acrylic acid]	++ (++ = a single % value ≧ 40%)
≥ 40	≤ 100	≥ 7.00	O=C(O)/C=C/c1ccc(/C(=C(/CCCl)c2ccccc2)c2ccc3[nH]ncc3c2)cc1 [Compound 20, (E)-3-(4-((E)-4-Chloro-1-(1H-indazol-5-yl)-2-phenylbut-1-en-1-yl)phenyl)acrylic acid]	++ (++ = a single % value ≧ 40%)
≥ 40	≤ 100	≥ 7.00	CC/C(=C(/c1ccc(/C=C/C(=O)O)cc1)c1ccc2[nH]ncc2c1)c1ccccc1F [Compound 16, (E)-3-(4-((E)-2-(2-Fluorophenyl)-1-(1H-indazol-5-yl)but-1-en-1-yl)phenyl)acrylic acid]	++ (++ = a single % value ≧ 40%)
≥ 40	≤ 100	≥ 7.00	O=C(O)/C=C/c1ccc(/C(=C(/CCCl)c2ccc(F)cc2Cl)c2ccc3[nH]ncc3c2F)cc1 [Compound 77, (E)-3-(4-((E)-4-Chloro-2-(2-chloro-4-fluorophenyl)-1-(4-fluoro-1H-indazol-5-yl)but-1-en-1-yl)phenyl)acrylic acid]	++ (++ = a single % value ≧ 40%)
≥ 40	–	≥ 7.00	CC/C(=C(/c1ccc(/C=C/C(=O)O)cc1)c1ccc2[nH]ncc2c1)c1ccccc1C#N [Compound 21, (E)-3-(4-((E)-2-(2-Cyanophenyl)-1-(1H-indazol-5-yl)but-1-en-1-yl)phenyl)acrylic acid]	++ (++ = a single % value ≧ 40%)
≥ 40	≤ 100	≥ 7.00	O=C(O)/C=C/c1ccc(/C(=C(/CCCl)c2ccccc2)c2ccc3[nH]ncc3c2F)cc1 [Compound 76, (E)-3-(4-((E)-4-Chloro-1-(4-fluoro-1H-indazol-5-yl)-2-phenylbut-1-en-1-yl)phenyl)acrylic acid]	++ (++ = a single % value ≧ 40%)
≥ 40	≤ 100	≥ 7.00	[2H]C([2H])([2H])C([2H])([2H])/C(=C(/c1ccc(/C=C/C(=O)O)cc1)c1ccc2[nH]ncc2c1)c1ccc(Cl)cc1Cl [Compound 132, (E)-3-(4-((E)-2-(2,4-Dichlorophenyl)-3,3,4,4,4-pentadeutero-1-(1H-indazol-5-yl)but-1-en-1-yl)phenyl)acrylic acid]	++ (++ = a single % value ≧ 40%)
≥ 40	≤ 100	≥ 7.00	CC/C(=C(/c1ccc(/C=C/C(=O)O)cc1)c1ccc2[nH]ncc2c1)c1cc(F)ccc1C [Compound 30, (E)-3-(4-((E)-2-(5-Fluoro-2-methylphenyl)-1-(1H-indazol-5-yl)but-1-en-1-yl)phenyl)acrylic acid]	++ (++ = a single % value ≧ 40%)
≥ 40	≤ 100	≥ 7.00	CC/C(=C(/c1ccc(/C=C/C(=O)O)cc1)c1ccc2[nH]ncc2c1)c1c(Cl)cccc1Cl [Compound 27, (E)-3-(4-((E)-2-(2,6-Dichlorophenyl)-1-(1H-indazol-5-yl)but-1-en-1-yl)phenyl)acrylic acid]	++ (++ = a single % value ≧ 40%)
≥ 40	≤ 100	≥ 7.00	CC/C(=C(/c1ccc(/C=C/C(=O)O)cc1)c1ccc2[nH]nc(F)c2c1)c1ccccc1 [Compound 86, (E)-3-(4-((E)-1-(3-Fluoro-1H-indazol-5-yl)-2-phenylbut-1-en-1-yl)phenyl)acrylic acid]	++ (++ = a single % value ≧ 40%)
≥ 40	–	≥ 7.00	CC/C(=C(/c1ccc(/C=C/C(=O)O)cc1)c1ccc2[nH]ncc2c1)c1ccc(Cl)cc1 [Compound 4, (E)-3-(4-((E)-2-(4-Chlorophenyl)-1-(1H-indazol-5-yl)but-1-en-1-yl)phenyl)acrylic acid]	++ (++ = a single % value ≧ 40%)
≥ 40	≤ 100	≥ 7.00	CC/C(=C(/c1ccc(/C=C/C(=O)O)cc1)c1ccc2[nH]ncc2c1)c1ccc(OC)cc1C [Compound 128, (E)-3-(4-((E)-1-(1H-Indazol-5-yl)-2-(4-methoxy-2-methylphenyl)but-1-en-1-yl)phenyl)acrylic acid]	++ (++ = a single % value ≧ 40%)

SMILES	Emax [1] [%]	DC50 [1] [nM]	pIC50 [2]	MCF7 Viability Assay Max Response [2]
CCCCOc1cccc(/C(CC)=C(\c2ccc(/C=C/C(=O)O)cc2)c2ccc3[nH]ncc3c2)c1 [Compound 96, (E)-3-(4-((E)-2-(3-Butoxyphenyl)-1-(1H-indazol-5-yl)but-1-en-1-yl)phenyl)acrylic acid]	≥ 40	≤ 100	≥ 7.00	++ (++ = a single % value ≧ 40%)

Source: patent US8455534B2, “Estrogen receptor modulators and uses thereof” (Aragon Pharmaceuticals, Inc., priority 2010, dated 2013)
